Results taken from US4522803A (priority 1983, dated 1985).
Read-outs that look alike come from different tables or passages of the source.

Experiments:
[1] = tested on: B. canis; parameters: species or system B. canis ATCC 23365; details: in vivo
[2] = tested on: B. canis; format: cell-based; details: suspension culture
[3] = tested on: B. abortus; parameters: species or system B. abortus ATCC 23451; details: in vivo, ip, 10 mg/kg
[4] = tested on: B. canis antigen; details: in vivo
[5] = tested on: B. canis; parameters: species or system B. canis ATCC 23365; details: in vivo, ip, 10 mg/kg
[6] = tested on: B. canis; format: cell-based
[7] = tested on: B. abortus; format: cell-based; details: mean ± SD of 12 replicates; streptomycin 1 mg/ml, 24 hours
[8] = tested on: B. canis; parameters: species or system B. canis ATCC 23365; details: in vivo, ip, 10 mg/kg; remark: listed apart in the source
[9] = tested on: B. canis; parameters: species or system B. canis ATCC 23365; details: in vivo; remark: listed apart in the source
[10] = tested on: M. bovis; format: in vivo
[11] = Retention and sustained release of gentamycin after topical application in eyes of mice

CN[C@@H]1[C@H](O[C@H]2[C@H](O[C@H]3[C@H](O)[C@@H](O)[C@H](NC(=N)N)[C@@H](O)[C@@H]3NC(=N)N)O[C@@H](C)[C@]2(O)CO)O[C@@H](CO)[C@H](O)[C@H]1O [Dihydrostreptomycin]
Colony-Forming Units B. Canis Per Spleen [1]: 1.13 ± 0.30 × 10^5
Killing of B. canis in vitro [2]: kill B. canis in vitro

[H]/N=C(/N)N[C@H]1[C@H](O)[C@@H](O)[C@H](O[C@@H]2O[C@@H](C)[C@](O)(C=O)[C@H]2O[C@@H]2O[C@@H](CO)[C@H](O)[C@@H](O)[C@@H]2NC)[C@@H](N/C(N)=N\[H])[C@@H]1O [Streptomycin]
Colony-Forming Units B. Canis Per Spleen [1]: 1.01 ± 0.17 × 10^5
Killing of B. canis in vitro [2]: kill B. canis in vitro
Surviving B. abortus in spleen [3]: viable B. abortus bacteria were be identified
M (2-mercaptoethanol tube agglutination test), reciprocal of serum titer [4]: 0 × 10^2
R (rapid slide agglutination test), reciprocal of serum titer [4]: 0 × 10^2
Serum antibody against B. canis ([4]; ip, 10 mg/kg): developed detectable serum titers against B. canis antigens by day 21 post-inoculation
Surviving B. canis per organ [5]: viable B. canis organisms could be isolated in all tissues sampled
Colony-forming units of intracellular B. canis [6]: 3.11 + 0.40 × 10^3 CFU
Colony-forming units of intracellular B. abortus [7]: 3.3 ± 0.25 × 10^4 CFU
Blood and vaginal culture outcome [8]: remained culture positive for blood and vaginal cultures during post-treatment periods
Surviving B. canis in spleens [9]: very little reduction in surviving B. canis in spleens was observed
M. Bovis cultures positive ([10]; UV-radiated, day 3 post-treatment): 3/5
M. Bovis cultures positive ([10]; UV-radiated, day 5 post-treatment): 4/5
Number of mice with corneal opacity score 0 ([10]; UV-radiated, post-treatment): 14
Number of mice with corneal opacity score 1 (loss of normal luster) ([10]; UV-radiated, post-treatment): 3
Number of mice with corneal opacity score 2 (small foci of opacity) ([10]; UV-radiated, post-treatment): 2
Number of mice with corneal opacity score 3 (partial opacity) ([10]; UV-radiated, post-treatment): 1
Number of mice with corneal opacity score 4 (total opacity) ([10]; UV-radiated, post-treatment): 0
Number of mice with corneal opacity score 0 ([10]; UV-radiated, pre-treatment): 0
Number of mice with corneal opacity score 1 (loss of normal luster) ([10]; UV-radiated, pre-treatment): 4
Number of mice with corneal opacity score 2 (small foci of opacity) ([10]; UV-radiated, pre-treatment): 9
Number of mice with corneal opacity score 3 (partial opacity) ([10]; UV-radiated, pre-treatment): 7
Number of mice with corneal opacity score 4 (total opacity) ([10]; UV-radiated, pre-treatment): 0
M. Bovis cultures positive ([10]; non-radiated, day 3 post-treatment): 2/5
M. Bovis cultures positive ([10]; non-radiated, day 5 post-treatment): 2/5
Number of mice with corneal opacity score 0 ([10]; non-radiated, post-treatment): 18
Number of mice with corneal opacity score 1 (loss of normal luster) ([10]; non-radiated, post-treatment): 2
Number of mice with corneal opacity score 2 (small foci of opacity) ([10]; non-radiated, post-treatment): 0
Number of mice with corneal opacity score 3 (partial opacity) ([10]; non-radiated, post-treatment): 0
Number of mice with corneal opacity score 4 (total opacity) ([10]; non-radiated, post-treatment): 0
Number of mice with corneal opacity score 0 ([10]; non-radiated, pre-treatment): 18
Number of mice with corneal opacity score 1 (loss of normal luster) ([10]; non-radiated, pre-treatment): 1
Number of mice with corneal opacity score 2 (small foci of opacity) ([10]; non-radiated, pre-treatment): 1
Number of mice with corneal opacity score 3 (partial opacity) ([10]; non-radiated, pre-treatment): 0
Number of mice with corneal opacity score 4 (total opacity) ([10]; non-radiated, pre-treatment): 0

Gentamycin
Killing of B. canis in vitro [2]: kill B. canis in vitro
Gentamycin retained in eyelid tissue ([11]; 4 hours, topical): less than 5%
Gentamycin sulfate cleared ([11]; within a 4 hour period): 95%
